The record followed here is ChEMBL document CHEMBL1201862, “PubChem BioAssay data set” (2004).

Some test systems named below: RXF 393; UACC-257; SNB-75; U-251; ACHN; NCI/ADR-RES; OVCAR-4; KM12; TK-10; CCRF-CEM; MOLT-4; HT-29; NCI-H522; HCC 2998; OVCAR-5; SN12C; SR; CAKI-1; COLO 205; SF-539.
Test in all cases: NCI anticancer screen, dose series, 48 h

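All cell lines were grown in 96-well plates and treated with compound for 48 hours. Here, GI50 denotes the concentration required for 50% inhibition of growth.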 Active and inactive are the calls of the source. Rule as the data show it: active = GI50 up to about 1.1 µM and inactive = higher. Some results are limits rather than exact numbers.

As for `CC(CO)(CO)Nc1ncnc2ccccc12`, the GI50 with RXF 393, with UACC-257, in the experiment on SNB-75, in the experiment with U-251, in the experiment on ACHN and with NCI/ADR-RES was > 100 µM (inactive) in each case. Also, the GI50 in the experiment on OVCAR-4, in the experiment on KM12, in the experiment with TK-10, with CCRF-CEM, in the experiment on MOLT-4 and with HT-29 was > 100 µM (inactive) each time. For the same compound, the GI50 in the experiment with NCI-H522 is > 100 µM (inactive); in the experiment with HCC 2998, > 100 µM (inactive); in the experiment with OVCAR-5, > 100 µM (inactive); in the experiment on SN12C, > 100 µM (inactive); in the experiment with SR, 66.1 µM (inactive); with CAKI-1, > 100 µM (inactive).
In the case of `C=CCN(c1cc(OC)c2[nH]c(C(=O)O)c(C)c2c1[N+](=O)[O-])S(C)(=O)=O`, the GI50 in the experiment with RXF 393, with UACC-257, in the experiment on SNB-75, in the experiment with U-251, with ACHN and in the experiment with NCI/ADR-RES was > 100 µM (inactive) throughout. For the same compound, the GI50 in the experiment with OVCAR-4, with KM12, in the experiment with TK-10, with CCRF-CEM, with COLO 205 and in the experiment on MOLT-4 was > 100 µM (inactive) each time. In addition, the GI50 with SF-539 is > 100 µM (inactive); in the experiment with NCI-H522 it was 10 µM (inactive); with HCC 2998, > 100 µM (inactive); in the experiment on OVCAR-5, > 100 µM (inactive); in the experiment with SN12C, 54.3 µM (inactive); in the experiment on SR it was > 100 µM (inactive). Further, the GI50 in the experiment on CAKI-1 is > 100 µM (inactive).
For the compound `CCOC(NC(=O)CC)(C(F)(F)F)C(F)(F)F`, the GI50 is 0.145 µM (active) in the experiment with RXF 393; > 100 µM (inactive) in the experiment on UACC-257; > 100 µM (inactive) in the experiment on SNB-75; > 100 µM (inactive) in the experiment on U-251; > 100 µM (inactive) in the experiment on ACHN; > 100 µM (inactive) with NCI/ADR-RES. The GI50 with KM12, in the experiment on TK-10, with CCRF-CEM, in the experiment on COLO 205, in the experiment with MOLT-4 and in the experiment with SF-539 was > 100 µM (inactive) each time. For the same compound, the GI50 in the experiment on HT-29, in the experiment with NCI-H522, with HCC 2998, in the experiment on OVCAR-5, in the experiment with SN12C and in the experiment on SR was > 100 µM (inactive) each time. The GI50 in the experiment on CAKI-1 is > 100 µM (inactive).
On to `N#CC(/N=N/c1ccccc1)c1nc2ccccc2o1` (stereo not given), for which the GI50 with RXF 393 is 22.6 µM (inactive); in the experiment on UACC-257, > 100 µM (inactive); in the experiment on U-251 it was 22.4 µM (inactive); in the experiment with ACHN it was 19.3 µM (inactive); in the experiment with NCI/ADR-RES, 23.8 µM (inactive); in the experiment on OVCAR-4, 11.2 µM (inactive). For the same compound, the GI50 in the experiment with KM12 is 49.7 µM (inactive); with TK-10, 24.5 µM (inactive); in the experiment on CCRF-CEM, 34.6 µM (inactive); in the experiment on COLO 205, 19.3 µM (inactive); in the experiment with MOLT-4, 49.4 µM (inactive); in the experiment on SF-539, 14.7 µM (inactive). Also, the GI50 is 61.4 µM (inactive) with HT-29; 27.2 µM (inactive) in the experiment with NCI-H522; > 100 µM (inactive) in the experiment on HCC 2998; 56.5 µM (inactive) in the experiment with OVCAR-5; 83.4 µM (inactive) in the experiment with SN12C; 36.8 µM (inactive) in the experiment with SR. Besides, in the experiment with CAKI-1, the GI50 was 31.9 µM (inactive).
`COc1cc([C@@H]2c3cc4c(cc3[C@@H](/N=C/c3ccc(C(=O)O[C@@H](C(=O)O[C@H]5C[C@@]6(O)[C@@H](OC(=O)c7ccccc7)[C@@H]7[C@]8(OC(C)=O)CO[C@@H]8C[C@H](O)[C@@]7(C)C(=O)[C@H](OC(C)=O)C(=C5C)C6(C)C)[C@@H](NC(=O)c5ccccc5)c5ccccc5)cc3)[C@H]3COC(=O)[C@H]23)OCO4)cc(OC)c1O`: the GI50 was 0.0333 µM (active) in the experiment with RXF 393; 0.109 µM (active) with UACC-257; < 0.005 µM (active) in the experiment on SNB-75; 0.0154 µM (active) in the experiment with U-251; 5.08 µM (inactive) in the experiment on ACHN; > 46 µM (inactive) with NCI/ADR-RES. Moreover, the GI50 is 0.0094 µM (active) in the experiment on KM12; 14.1 µM (inactive) in the experiment on TK-10; 0.0118 µM (active) in the experiment on CCRF-CEM; 0.00891 µM (active) in the experiment on COLO 205; 0.018 µM (active) with MOLT-4; 0.0141 µM (active) in the experiment with SF-539. Further, the GI50 in the experiment with HT-29 was 0.0103 µM (active); with NCI-H522 it was 0.0138 µM (active); in the experiment on HCC 2998, 0.0189 µM (active); in the experiment on OVCAR-5, 0.0312 µM (active); with SN12C, 0.0393 µM (active); in the experiment on SR, < 0.005 µM (active). For the same compound, the GI50 with CAKI-1 was 6.31 µM (inactive).
Regarding `O=C1N/C(=N/N=C\c2ccccc2)N/C1=C/c1ccc(Cl)cc1`, the GI50 in the experiment with RXF 393 is 21.2 µM (inactive); with UACC-257, 43 µM (inactive); in the experiment with SNB-75, 18.7 µM (inactive); with U-251 it was 22.8 µM (inactive); in the experiment with ACHN it was 13.8 µM (inactive); in the experiment on NCI/ADR-RES, 23.2 µM (inactive). In addition, the GI50 with OVCAR-4 was 12.8 µM (inactive); in the experiment on KM12, 27.1 µM (inactive); with TK-10, 42.3 µM (inactive); in the experiment with COLO 205 it was 32.2 µM (inactive); with MOLT-4, 15.5 µM (inactive); in the experiment with SF-539 it was 23.9 µM (inactive). In addition, the GI50 in the experiment with HT-29 was 33 µM (inactive); with NCI-H522 it was 18.5 µM (inactive); in the experiment on HCC 2998 it was 15.9 µM (inactive); with OVCAR-5, 26.4 µM (inactive); in the experiment with SN12C, 23.2 µM (inactive); in the experiment with SR it was 13.3 µM (inactive). Also, the GI50 with CAKI-1 was 33.2 µM (inactive).
In the case of `Cc1sc2nc3n(c(=O)c2c1C)N=CN(c1ccc(F)cc1)C3`, the GI50 in the experiment with RXF 393 is > 100 µM (inactive); in the experiment on UACC-257 it was > 100 µM (inactive); in the experiment with SNB-75, 42.4 µM (inactive); in the experiment with U-251, 50.1 µM (inactive); in the experiment with ACHN, 29 µM (inactive); with NCI/ADR-RES, > 100 µM (inactive). For the same compound, the GI50 with OVCAR-4 is 18.7 µM (inactive); with KM12, > 100 µM (inactive); with TK-10, > 100 µM (inactive); with CCRF-CEM, > 100 µM (inactive); with COLO 205 it was > 100 µM (inactive); in the experiment on MOLT-4, > 100 µM (inactive). The GI50 with HT-29 was > 100 µM (inactive); in the experiment on NCI-H522, 69.3 µM (inactive); in the experiment with HCC 2998, 59.6 µM (inactive); with OVCAR-5, > 100 µM (inactive); with SN12C it was 32.9 µM (inactive); with SR, > 100 µM (inactive). In addition, in the experiment on CAKI-1, the GI50 is > 100 µM (inactive).
As for `O=C(NC(OCc1ccccc1)(C(F)(F)F)C(F)(F)F)OCc1ccccc1`, the GI50 with RXF 393 was 12.5 µM (inactive); in the experiment on UACC-257, 14.2 µM (inactive); with SNB-75, 15.6 µM (inactive); in the experiment on U-251, 14.1 µM (inactive); in the experiment with ACHN, 15.7 µM (inactive); in the experiment with NCI/ADR-RES, 12.6 µM (inactive). Besides, the GI50 is 16.4 µM (inactive) in the experiment with KM12; 7.8 µM (inactive) in the experiment on TK-10; 16.1 µM (inactive) in the experiment with CCRF-CEM; 17.8 µM (inactive) in the experiment with COLO 205; 18.1 µM (inactive) in the experiment on MOLT-4; 17.3 µM (inactive) in the experiment on SF-539. Moreover, the GI50 with HT-29 is 18 µM (inactive); with NCI-H522, 13.6 µM (inactive); with HCC 2998 it was 15.4 µM (inactive); in the experiment with OVCAR-5, 14.3 µM (inactive); in the experiment with SN12C, 15.9 µM (inactive); in the experiment with SR, 12 µM (inactive). Also, in the experiment with CAKI-1, the GI50 was 14.4 µM (inactive).
Turning to `CCOC(=O)c1ccc2c(=O)n3c(C(=O)OCC)ccc3c(=O)n12`, the GI50 with RXF 393 is > 100 µM (inactive); with UACC-257 it was > 100 µM (inactive); in the experiment on SNB-75 it was 44.5 µM (inactive); in the experiment on U-251 it was > 100 µM (inactive); in the experiment with ACHN it was > 100 µM (inactive); with NCI/ADR-RES it was > 100 µM (inactive). The GI50 in the experiment on OVCAR-4, with KM12, in the experiment on TK-10, in the experiment on CCRF-CEM, in the experiment with COLO 205 and in the experiment with MOLT-4 was > 100 µM (inactive) in each case. Also, the GI50 was > 100 µM (inactive) in the experiment on HT-29; 60.7 µM (inactive) with NCI-H522; > 100 µM (inactive) in the experiment on HCC 2998; > 100 µM (inactive) in the experiment on OVCAR-5; > 100 µM (inactive) in the experiment on SN12C; > 100 µM (inactive) with SR. Besides, in the experiment with CAKI-1, the GI50 was > 100 µM (inactive).
Consider `COc1ccc2c(c1)c1c(C)c3cnccc3c(C)c1n2CCCN`, for which the GI50 in the experiment with RXF 393 was 0.05 µM (active); in the experiment with UACC-257, 0.518 µM (active); with SNB-75 it was 0.378 µM (active); in the experiment with ACHN, 0.124 µM (active); in the experiment on NCI/ADR-RES, 0.273 µM (active); with OVCAR-4 it was 0.0541 µM (active). In addition, the GI50 with TK-10 is 0.248 µM (active); in the experiment on COLO 205, 0.177 µM (active); with SF-539, 0.405 µM (active); in the experiment on HT-29 it was 0.117 µM (active); in the experiment with NCI-H522, 0.313 µM (active); in the experiment on HCC 2998, 0.457 µM (active). The GI50 in the experiment with OVCAR-5 is 0.431 µM (active); with SN12C, 0.234 µM (active); with SR, < 0.01 µM (active).
